System: rat motor neurons
Test: in vitro model of trophic deprivation of rat motor neurons (survival, calcein fluorescence after 3 days)
Assay type: cell-based
Settings: Concentration 1 μM, E14 rat motor neurons, Neurobasal medium without neurotrophic factors
Excerpt: Reference can usefully be made to the applicant's patent application WO 0142784 on the culturing of motor neurons of the spinal cord.
The spinal cord of E14 rat embryos is dissected and the ventral part is dissociated by trituration after trypsination.
The motor neurons are separated from the other spinal cells by a known method (Camu et al., 1993, Purification of spinal motoneurons from chicken and rat embryos by immunopanning. In “Immunoselection Strategies for Neural cell culture”, Neuroprotocols: A companion to Methods in Neurosciences 2, 191-199; Henderson et al., 1993, Neutrophins promote motor neuron survival and are present in embryonic limb bud. Nature 363 (6426):266-70).
The cells are centrifuged on a density gradient. The fraction of large cells (the least dense) is enriched with motor neurons. The cells in this fraction are incubated with an anti-p75 antibody, a surface antigen present on the motor neurons.
Secondary antibodies coupled to magnetic beads are added and the mixture of cells is passed through a column in a magnet (Arce et al., 1999 Cardiotrophin-1 requires LIFRbeta to promote survival of mouse motoneurons purified by a novel technique. J. Neurosci Res 55 (1): 119-26). Only the motor neurons are retained: their purity is of the order of 90%.
The motor neurons are seeded at a low density in culture wells on a polyornithine-laminin substrate in a neurobasal medium (GIBCO) supplemented according to Raoul et al., 1999, Programmed cell death of embryonic motoneurons triggered through the Fas death receptor. J Cell Biol 147 (5):1049-62.
Negative controls (absence of trophic factors) and positive controls (in the presence of BDNF (Brain-Derived Neurotrophic Factor) at 1 ng/ml, GDNF (Glial-Derived Neurotrophic Factor) at 1 ng/ml and CNTF (Ciliary Neurotrophic Factor) at 10 ng/ml, marketed by the American company PEPROTECH, Inc. and the company Sigma-Aldrich, are included in each series.
The compounds to be tested are added 60 minutes after seeding and the cultures are maintained at 37° C. under 5% CO2 for 3 days.
The motor neurons have a spontaneous tendency to die in the absence of neurotrophic factors (Pettmann and Henderson, 1998, Neuronal cell death. Neuron 20 (4):633-47). After 3 days, the survival is evaluated by a fluorescence measurement after incubation of the cells in the presence of calcein which becomes fluorescent in living cells.
After 3 days in culture at 37° C., under 5% CO2 and under saturation humidity, up to 50% of the motor neurons initially seeded survive in the medium supplemented with neurotrophic factors, whilst less than 15% of the motor neurons survive in culture medium without added neurotrophic factors.
The neuroprotective activity of the compounds to be tested was evaluated by their ability to prevent the death of the motor neurons when they are added to the Neurobasal medium (GIBCO) in comparison with the survival of the motor neurons in medium with added neurotrophic factors.
This survival rate is expressed by the number of living cells after treatment with the compound to be tested compared with the survival induced by the neurotrophic factors. This ratio can therefore represent the survival percentage due to the compound tested compared with the survival induced by the neurotrophic factors. If the ratio is greater than 0, the effect of the compounds on the survival of the motor neurons is positive.

| SMILES | Ratio (survival of motor neurons with compound compared with the survival induced by the neurotrophic factors) |
| --- | --- |
| CC(CCC[C@@H](C)[C@H]1CC[C@H]2[C@@H]3CCC4=CC(=NO)CC[C@]4(C)[C@H]3CC[C@]12C)N(C)c1ccc([N+](=O)[O-])c2nonc12 (stereo partly drawn) [Example 2h, 3-oxyimino-25-[methyl(7-nitro-2,1,3-benzoxadiazol-4-yl)amino]-27-norcholest-4-ene] | 0.66 |
| COC1=C2CC[C@H]3[C@@H]4CC[C@H]([C@H](C)CCCC(C)C)[C@@]4(C)CC[C@@H]3[C@@]2(C)CCC1=NO [Example 2n, 3-oxyimino-4-methoxy-cholest-4-ene] | 0.34 |
| CC(C)CCC[C@@H](C)[C@H]1CC[C@H]2[C@@H]3CCC4=CC(=NO)C(C)C[C@]4(C)[C@H]3CC[C@]12C (stereo partly drawn) [Example 2m, 3-oxyimino-2-methyl-cholest-4-ene] | 0.42 |
| CC(C)CCC[C@@H](C)[C@H]1CC[C@H]2[C@@H]3CCC4=CC(=NO)CC[C@]4(COC(=O)CCCCC4SCC5NC(=O)NC54)[C@H]3CC[C@]12C (stereo partly drawn) [Example 2l, 3-oxyimino-19-biotinyloxy-cholest-4-ene] | 0.32 |

Same assay, conditions: Concentration 3 μM, E14 rat motor neurons, Neurobasal medium without neurotrophic factors

| SMILES | Ratio (survival of motor neurons with compound compared with the survival induced by the neurotrophic factors) |
| --- | --- |
| CC(C)CCC[C@@H](C)[C@H]1CCC2C3CCC4=C/C(=N/O)C(F)(F)C[C@]4(C)C3CC[C@@]21C (stereo partly drawn) [Example 2d, 3-oxyimino-2,2-difluoro-cholest-4-ene] | 0.50 |
| CC(C)CCC[C@@H](C)[C@H]1CC[C@H]2[C@@H]3CCC4=CC(=NO)CC[C@]4(CO)[C@H]3CC[C@]12C [Example 2k, 3-oxyimino-19-hydroxy-cholest-4-ene] | 0.49 |
| CC(CCCC(C)N(C)C(=O)CCCCC1SCC2NC(=O)NC21)C1CCC2C3CCC4=CC(=NO)CCC4(C)C3CCC12C (stereo not drawn) [Example 2i, 3-oxyimino-25-((N-(+)-biotinoyl-N-methyl)amino)-27-norcholest-4-ene] | 0.42 |
| CC(C)CCC[C@@H](C)[C@H]1CC[C@H]2[C@@H]3CC(F)C4=CC(=NO)C(F)C[C@]4(C)[C@H]3CC[C@]12C (stereo partly drawn) [Example 2e, 3-oxyimino-2,6-difluoro-cholest-4-ene] | 0.37 |
| CC(C)CCC[C@@H](C)[C@H]1CCC2C3CCC4=C(F)/C(=N/O)CC[C@]4(C)C3CC[C@@]21C (stereo partly drawn) [Example 2b, 3-oxyimino-4-fluoro-cholest-4-ene] | 0.73 |
| CC(C)CCC[C@@H](C)[C@H]1CCC2C3C[C@@H](F)C4=CC(=NO)CC[C@]4(C)C3CC[C@@]21C (stereo partly drawn) [Example 2c, 3-oxyimino-6β-fluoro-cholest-4-ene] | 0.50 |
| CC(C)CCC[C@@H](C)[C@H]1CC[C@H]2[C@@H]3CCC4=CC(=NO)[C@H](F)C[C@]4(C)[C@H]3CC[C@]12C [Example 2f, 3-oxyimino-2α-fluoro-cholest-4-ene] | 0.27 |

System: not listed separately
Test: exposure after administration by oral route
Assay type: in vivo
Settings: qualitative

| SMILES | exposure when administered by oral route |
| --- | --- |
| CC(C)CCC[C@@H](C)[C@H]1CCC2C3CCC4=C(F)/C(=N/O)CC[C@]4(C)C3CC[C@@]21C (stereo partly drawn) [Example 2b, 3-oxyimino-4-fluoro-cholest-4-ene] | improved exposure |

Source: US9447140B2, “Cholest-4-en-3-one oxime derivatives, pharmaceutical compositions containing same, and preparation method” (TROPHOS, priority 2008, dated 2016)
